# Laboratory results taken from US7105527B2, “N4-acylcytosine nucleosides for treatment of viral infections” (priority 2001, dated 2006).
# Read-outs that look alike come from different tables or passages of the source.
# Tests used:
# HIV-1LAl = assay: Anti-HIV (in PBM cells) assay, reverse transcriptase readout; format: cell-based
# Protocol: Anti-HIV-1 activity of the compounds was determined in human peripheral blood mononuclear (PBM) cells as described previously (Schinazi […]., Cannon D., Mathis R., Lloyd R. M. Jr., […]., St. Clair M., Wilson J., Furman P. A., Painter G., Choi […]. Antimicrob. Agents Chemother. 1992, 36, 2423; Schinazi […]., Cannon D., Xie […]., Smith G., Hahn E. Antimicrob. Agents Chemother. 1990, 34, 1061). Stock solutions ([…]) of the compounds were prepared in sterile DMSO and then diluted to the desired concentration in growth medium. […] Virus obtained from the cell supernatant was quantified on day 6 after infection by a reverse transcriptase assay using (rA)n.(dT)12.18 as template-primer. […] AZT was included as positive control. The antiviral EC50 and EC90 were obtained from the concentration-response curve using the median effective method described previously (Chou […]. Enzyme Regul. 1984, 22, 27-55; Belen'kii M. S. & Schinazi R. F. Antiviral Res. 1994, 25, 1-11).
# [1] = Cytotoxicity assay in MT-2 cells; format: cell-based; details: human, Table 1, read-out: Cytotoxicity in different cells (IC50, μM) MT-2
# Protocol: (§1) The toxicity of the compounds was assessed in Vero, human PBM, CEM (human lymphoblastoid), MT-2, and HepG2 cells, as described previously (Schinazi […]., Cannon D. L., Xie […]., Smith […]. […] Cycloheximide was included as positive cytotoxic control, and untreated cells exposed to solvent were included as negative controls. The cytotoxicity IC50 was obtained from the concentration-response curve using the median effective method described previously (Chou […]. […] Belen'kii M. S. & Schinazi R. F.
# [2] = Cytotoxicity assay in HepG2 cells; format: cell-based; details: human, Table 1, read-out: Cytotoxicity in different cells (IC50, μM) HepG2
# Protocol: as §1
# HIV-1RF = assay: Anti-HIV (in MT-2 cells) assay, viral RNA accumulation; format: cell-based; details: EC90, MT-2 cells, read-out: Anti-HIV-1 activity in different cells (EC90, μM) MT-2
# Protocol: (§2) In a second antiviral testing system, the potency of the compounds was determined by measurement of viral RNA accumulation in HIV-1RF infected MT-2 cells (Bacheler L T, Paul M, Otto M J, Jadhav P K, Stone B A & Miller J A (1994) An assay for HIV RNIn infected cell lysates, and its use for rapid evaluation of antiviral efficacy. Antivir. Chem. Chemother. 5:111–121). The virus titer was established to determine the dilution producing 15 to 30 ng/RNA per well of HIV RNIn 3 days of infection. HIV-1 RNA was quantified using biotinylated capture and alkaline phosphatase-derivatized reporter oligonucleotides as described previously (Charvet A-S, Camplo M, Faury P, Graciet J C, Mourier N, Chermann J C & Kraus J L (1994) Inhibition of human immunodeficiency virus type 1 replication by phosphonoformate- and phosphonoacetate-2′,3′-dideoxy-3′-thiacytidine conjugates. J. Med. Chem. 37:2216–2223). In a third system, the effect of analogs on the replication of HIV-1NL4-3 was determined via the InterCompany Consortium consensus p24 assay as previously described (Jadhav P K & MacKay M F (1997) Cyclic urea amide: HIV-1 protease inhibitors with low nanomolar potency against both wild types and protease inhibitor resistant mutants of HIV. J. Med. Chem. 40:181–190). Recombinant viruses were recovered by transfecting the appropriate NL4-3 plasmid by lipofection. Virus stocks recovered 7 to 10 days post-transfection were titered on MT-4 cells to determine if the dilution produced 1,000 to 3,000 ng p24 in 4 days. This dilution was then used in drug susceptibility assays, where drug was added 24 h post infection of cells, and p24 quantified by ELISA 3 days later.
# [3] = Cytotoxicity assay in Vero cells; format: cell-based; details: African green monkey, Table 1, read-out: Cytotoxicity in different cells (IC50, μM) Vero
# Protocol: as §1
# HIV-1NL4-3 = assay: Anti-HIV assay in MT-4 cells, consensus p24 assay; format: cell-based; details: Human immunodeficiency virus 1, MT4, Table 1, read-out: Anti-HIV-1 activity in different cells (EC90, μM) MT-4
# Protocol: as §2
# [4] = Cytotoxicity assay in PBM cells; format: cell-based, human; details: human, human PBM cells, Table 1, read-out: Cytotoxicity in different cells (IC50, μM) PBM
# Protocol: as §1
# [5] = Cytotoxicity assay in CEM cells; format: cell-based, human; details: human, CEM lymphoblastoid cells, Table 1, read-out: Cytotoxicity in different cells (IC50, μM) CEM
# Protocol: as §1
# MT-2 cells = assay: Cytotoxicity assay in MT-2 cells; format: cell-based
# Protocol: as §1
# HepG2 cells = assay: Cytotoxicity assay in HepG2 cells; format: cell-based
# Protocol: as §1
# Vero cells = assay: Cytotoxicity assay in Vero cells; format: cell-based
# Protocol: as §1
# human PBM cells = assay: Cytotoxicity assay in PBM cells; format: cell-based
# Protocol: as §1
# [6] = system: CEM (human lymphoblastoid) cells; assay: Cytotoxicity assay in CEM cells; format: cell-based
# Protocol: as §1
# [7] = Human immunodeficiency virus 1, PBMC, Table 1, read-out: Anti-HIV-1 activity in different cells (EC90, μM) PBM
# [8] = Human immunodeficiency virus 1, MT2, Table 1
# [9] = Table 1, read-out: Anti-HIV-1 activity in different cells (EC90, μM) PBM
# [10] = Table 1, read-out: Cytotoxicity in different cells (IC50, μM) MT-2
# [11] = Table 1, read-out: Cytotoxicity in different cells (IC50, μM) HepG2
# [12] = Table 1, read-out: Cytotoxicity in different cells (IC50, μM) Vero
# [13] = Table 1, read-out: Cytotoxicity in different cells (IC50, μM) PBM
# [14] = Table 1, read-out: Cytotoxicity in different cells (IC50, μM) CEM
# [15] = Table 2, read-out: Anti-HIV-1 activity in different cells (EC90, μM) PBM
# [16] = Table 2, read-out: Cytotoxicity in different cells (IC50, μM) MT-2
# [17] = Table 2, read-out: Cytotoxicity in different cells (IC50, μM) HepG2
# [18] = Table 2, read-out: Cytotoxicity in different cells (IC50, μM) Vero
# [19] = Table 2, read-out: Cytotoxicity in different cells (IC50, μM) PBM
# [20] = Table 2, read-out: Cytotoxicity in different cells (IC50, μM) CEM
Structure (SMILES),EC90 (HIV-1LAl; [9]) [µM],IC50 (MT-2 cells; [10]) [µM],IC50 (HepG2 cells; [11]) [µM],EC90 (HIV-1RF; Table 1) [µM],IC50 (Vero cells; [12]) [µM],IC50 (human PBM cells; [13]) [µM],"IC50 [6, 14] [µM]",EC90 (HIV-1LAl; [15]) [µM],IC50 (MT-2 cells; [16]) [µM],IC50 (HepG2 cells; [17]) [µM],EC90 (HIV-1RF; Table 2) [µM],IC50 (Vero cells; [18]) [µM],IC50 (human PBM cells; [19]) [µM],"IC50 [6, 20] [µM]",further results
"O=C(Nc1nc(=O)n([C@H]2CC[C@@H](CO)O2)cc1F)c1ccc(I)cc1 [Compound 10, β-D-2′,3′-Dideoxy-5-fluoro-N^4-(4-iodobenzoyl)cytidine]",–,–,–,–,–,–,–,–,–,–,–,–,–,–,EC90 (HIV-1LAl; [7]): 0.019 µM; IC50 [1]: > 50 µM; IC50 [2]: > 100 µM; EC90 (HIV-1RF; [8]): 0.025 µM; IC50 [3]: > 100 µM; EC90 (HIV-1NL4-3): 0.17 µM; IC50 [4]: > 100 µM; IC50 [5]: > 100 µM
"O=C(Nc1nc(=O)n([C@H]2CC[C@@H](CO)O2)cc1F)c1ccc(F)cc1 [Compound 11, β-D-2′,3′-Dideoxy-5-fluoro-N^4-(4-fluorobenzoyl)cytidine]",–,–,–,–,–,–,–,–,–,–,–,–,–,–,EC90 (HIV-1LAl; [7]): 0.027 µM; IC50 [1]: > 50 µM; IC50 [2]: > 100 µM; EC90 (HIV-1RF; [8]): 0.32 µM; IC50 [3]: > 100 µM; EC90 (HIV-1NL4-3): 0.61 µM; IC50 [4]: > 100 µM; IC50 [5]: 45.7 µM
"O=C(Nc1nc(=O)n([C@H]2CC[C@@H](CO)O2)cc1F)c1ccccc1[N+](=O)[O-] [Compound 20, β-D-2′,3′-Dideoxy-5-fluoro-N^4-(2-nitrobenzoyl)cytidine]",1.5,> 50,> 100,0.7,> 100,> 100,> 100,–,–,–,–,–,–,–,–
"O=C(Nc1nc(=O)n([C@H]2CC[C@@H](CO)O2)cc1F)c1ccccc1 [Compound 21, β-D-N^4-Benzoyl-2′,3′-dideoxy-5-fluorocytidine]",1.29,19,15.3,1.2,5.8,67,38.5,–,–,–,–,–,–,–,–
"Cc1ccccc1C(=O)Nc1nc(=O)n([C@H]2CC[C@@H](CO)O2)cc1F [Compound 24, β-D-2′,3′-Dideoxy-5-fluoro-N^4-o-toluoylcytidine]",1.2,> 50,> 100,6.8,39.6,20.6,22.5,–,–,–,–,–,–,–,–
"O=C(Nc1nc(=O)n([C@H]2CC[C@@H](CO)O2)cc1F)c1ccco1 [Compound 29, β-D-2′,3′-Dideoxy-5-fluoro-N^4-(2-furoyl)cytidine]",1.5,> 50,31.1,0.9,29.6,16.9,5.7,–,–,–,–,–,–,–,–
"O=C(Nc1nc(=O)n([C@H]2CC[C@@H](CO)O2)cc1F)c1cccnc1 [Compound 31, β-D-2′,3′-Dideoxy-5-fluoro-N^4-(nicotinoyl)cytidine]",0.17,> 50,19.4,5.9,28.1,8.8,5.5,–,–,–,–,–,–,–,–
"CCCC(=O)Nc1nc(=O)n([C@H]2CC[C@@H](CO)O2)cc1F [Compound 34, β-D-N^4-Butyryl-2′,3′-dideoxy-5-fluorocytidine]",1.6,7.2,7.6,0.71,5.8,17.1,31.6,–,–,–,–,–,–,–,–
"COc1cccc(C(=O)Nc2nc(=O)n([C@H]3C=C[C@@H](CO)O3)cc2F)c1 [Compound 43, β-D-N^4-m-Anisoyl-2′,3′-didehydro-2′,3′-dideoxy-5-fluorocytidine]",–,–,–,–,–,–,–,2.1,> 50,> 100,0.34,> 100,18.5,24.6,–
"COc1ccccc1C(=O)Nc1nc(=O)n([C@H]2C=C[C@@H](CO)O2)cc1F [Compound 44, β-D-N^4-o-Anisoyl-2,3′-didehydro-2,3-dideoxy-5-fluorocytidine]",–,–,–,–,–,–,–,14.6,> 50,3.4,> 50,5.6,13.1,3.9,–
"O=C(Nc1nc(=O)n([C@H]2C=C[C@@H](CO)O2)cc1F)c1ccc([N+](=O)[O-])cc1 [Compound 45, β-D-2′,3′-Didehydro-2′,3′-dideoxy-5-fluoro-N^4-(4-nitrobenzoyl)cytidine]",–,–,–,–,–,–,–,1.7,> 50,5.6,0.29,6.6,3.4,4.2,–
"O=C(Nc1nc(=O)n([C@H]2C=C[C@@H](CO)O2)cc1F)c1ccccc1[N+](=O)[O-] [Compound 47, β-D-2′,3′-Didehydro-2′,3′-dideoxy-5-fluoro-N^4-(2-nitrobenzoyl)cytidine]",–,–,–,–,–,–,–,39.9,> 50,> 100,> 50,> 100,80,> 100,–
"Cc1ccccc1C(=O)Nc1nc(=O)n([C@H]2C=C[C@@H](CO)O2)cc1F [Compound 50, β-D-2′,3′-Didehydro-2′,3′-dideoxy-5-fluoro-N^4-o-toluoylcytidine]",–,–,–,–,–,–,–,56.8,> 50,> 100,> 50,> 100,58.4,46.4,–
"O=C(Nc1nc(=O)n([C@H]2C=C[C@@H](CO)O2)cc1F)c1cccs1 [Compound 54, β-D-2′,3′-Didehydro-2′,3′-dideoxy-5-fluoro-N^4-(2-thiophenecarbonyl)cytidine]",–,–,–,–,–,–,–,1.6,> 50,2.3,1.5,4.8,10.2,3.9,–
"O=C(Nc1nc(=O)n([C@H]2C=C[C@@H](CO)O2)cc1F)c1cccnc1 [Compound 55, β-D-2, 3′-Didehydro-2′,3′-dideoxy-5-fluoro-N^4-nicotinoylcytidine]",–,–,–,–,–,–,–,42.3,> 50,10.3,29,13.1,13.8,6.7,–
"O=C(Nc1nc(=O)n([C@H]2C=C[C@@H](CO)O2)cc1F)c1cc2ccccc2s1 [Compound 56, β-D-2′,3′-Didehydro-2′,3′-dideoxy-5-fluoro-N-(benzo[b]thiophene-2-carbonyl)cytidine]",–,–,–,–,–,–,–,0.29,> 50,1.3,0.3,5.6,2.2,2.8,–
